In the NIST ThermoML archive (doi:10.1021/je060271a):

Conditions: 283.15 K, Liquid, Vibrating tube method

CCCCCC(=O)OCC(COC(=O)CCCCC)(COC(=O)CCCCC)COC(=O)CCCCC [pentaerythritol tetrahexanoate]
Conditions | mass density [kg/m3]
12947 kPa | 1011.7
12961 kPa | 1011.5
12978 kPa | 1011.5
12991 kPa | 1011.6
13005 kPa | 1011.6
13019 kPa | 1011.6
13036 kPa | 1011.6
13050 kPa | 1011.7
13064 kPa | 1011.4
13081 kPa | 1011.6
13095 kPa | 1011.5
13109 kPa | 1011.6
13126 kPa | 1011.7
13139 kPa | 1011.7
13156 kPa | 1011.7
13170 kPa | 1011.7
13185 kPa | 1011.7
13202 kPa | 1011.8
13216 kPa | 1011.7
13233 kPa | 1011.7
13247 kPa | 1011.7
13262 kPa | 1011.8
13276 kPa | 1011.9
13293 kPa | 1011.7
13308 kPa | 1011.8
13322 kPa | 1011.7
13340 kPa | 1011.8
13355 kPa | 1011.8
13372 kPa | 1011.8
13386 kPa | 1011.9
13401 kPa | 1011.8
13419 kPa | 1012
13434 kPa | 1011.8
13448 kPa | 1011.8
13466 kPa | 1011.8
13481 kPa | 1012
13496 kPa | 1011.9
13514 kPa | 1011.8
13529 kPa | 1011.9
13544 kPa | 1012
13559 kPa | 1012
13577 kPa | 1011.9
13592 kPa | 1011.9
13607 kPa | 1011.9
13625 kPa | 1011.8
13640 kPa | 1012
13655 kPa | 1012.1
13669 kPa | 1012
13687 kPa | 1012.1
13702 kPa | 1012
13716 kPa | 1011.8
13735 kPa | 1012
13750 kPa | 1011.9
13765 kPa | 1011.9
13782 kPa | 1012.1
13797 kPa | 1012.1
13810 kPa | 1012.1
13827 kPa | 1012.1
13842 kPa | 1011.9
13855 kPa | 1012
13870 kPa | 1012.1
13883 kPa | 1012.1
13894 kPa | 1012.1
13906 kPa | 1012
13920 kPa | 1012.1
13934 kPa | 1012.3
13949 kPa | 1012.2
13966 kPa | 1012.1
13981 kPa | 1012.1
13996 kPa | 1012.2
14013 kPa | 1012.1
14027 kPa | 1012.2
14042 kPa | 1012.1
14058 kPa | 1012.2
14073 kPa | 1012.3
14087 kPa | 1012.2
14104 kPa | 1012.2
14118 kPa | 1012.1
14133 kPa | 1012.2
14150 kPa | 1012.1
14164 kPa | 1012.3
14179 kPa | 1012.3
14196 kPa | 1012.2
14211 kPa | 1012.2
14225 kPa | 1012.2
14243 kPa | 1012.1
14257 kPa | 1012.3
14272 kPa | 1012.3
14289 kPa | 1012.3
14304 kPa | 1012.3
14320 kPa | 1012.4
14335 kPa | 1012.4
14350 kPa | 1012.3
14368 kPa | 1012.2
14382 kPa | 1012.4
14397 kPa | 1012.4
14415 kPa | 1012.6
14430 kPa | 1012.3
14448 kPa | 1012.4
14463 kPa | 1012.3
14478 kPa | 1012.3
14496 kPa | 1012.4
14511 kPa | 1012.4
14527 kPa | 1012.4
14542 kPa | 1012.5
14560 kPa | 1012.4
14575 kPa | 1012.4
14591 kPa | 1012.4
14609 kPa | 1012.6
14624 kPa | 1012.5
14640 kPa | 1012.4
14658 kPa | 1012.5
14674 kPa | 1012.5
14689 kPa | 1012.4
14708 kPa | 1012.4
14724 kPa | 1012.5
14739 kPa | 1012.5
14755 kPa | 1012.5
14774 kPa | 1012.5
14790 kPa | 1012.6
14805 kPa | 1012.6
14824 kPa | 1012.6
14840 kPa | 1012.7
14856 kPa | 1012.7
14875 kPa | 1012.6
14891 kPa | 1012.7
14907 kPa | 1012.7
14926 kPa | 1012.7
14942 kPa | 1012.6
14959 kPa | 1012.8
14974 kPa | 1012.7
14993 kPa | 1012.7
15008 kPa | 1012.6
15024 kPa | 1012.8
15042 kPa | 1012.7
15058 kPa | 1012.8
15074 kPa | 1012.7
15090 kPa | 1012.8
15108 kPa | 1012.8
15124 kPa | 1012.8
15140 kPa | 1012.8
15159 kPa | 1012.7
15175 kPa | 1012.9
15190 kPa | 1012.9
15209 kPa | 1012.8
